# Laboratory results reported in PubChem BioAssay AID504578 (NMMLSC, 2011).
# Tested on: U937 / B78H1-VCAM-1 aggregate disruption, flow cytometry
# Test: allosteric VLA-4 inhibitors disrupting cell aggregates, orthogonal assay, flow cytometry, set 1 (AID 504578)
# Conditions: at 20 µM; active compounds read high
row,SMILES,disaggregation rating
1,CN(C)CCOc1ccc(-c2c(-c3ccccc3)sc3ccccc23)cc1,2
2,c1ccc2c(-c3ccc(OCCN4CCCC4)cc3)c(-c3ccsc3)sc2c1,2
3,COc1cccc(-c2sc3ccccc3c2-c2ccc(OCCN3CCCC3)cc2)c1,1
4,COc1ccc(-c2sc3ccccc3c2-c2ccc(OCCN(C)C)cc2)cc1,2
5,COc1cccc(-c2sc3ccccc3c2-c2ccc(OCCN(C)C)cc2)c1,1
6,c1ccc2c(-c3ccc(OCCN4CCCCC4)cc3)c(-c3ccsc3)sc2c1,1
7,c1ccc(-c2sc3ccccc3c2-c2ccc(OCCN3CCCC3)cc2)cc1,1
